{"source": "patent US20250041312A1", "about": "“METHODS OF ADMINISTERING A MODULATOR OF HEMOGLOBIN” (Global Blood Therapeutics, Inc., priority 2021, published 2025)", "key": {"[1]": {"target": "T1, hemoglobin (Homo sapiens, UniProt P68871+P69905)", "T1 construct": "divided by the molar concentration of hemoglobin in RBCs; endogenous in cells; host or cells: red blood cells of healthy volunteers (in vivo)", "T1 sequence (P69905 2-142 limits assumed)": "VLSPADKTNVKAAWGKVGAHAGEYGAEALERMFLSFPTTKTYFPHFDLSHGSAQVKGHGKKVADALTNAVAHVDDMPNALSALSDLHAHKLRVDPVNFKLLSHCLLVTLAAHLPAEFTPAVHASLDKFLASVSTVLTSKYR", "T1 sequence (P68871 2-147 limits assumed)": "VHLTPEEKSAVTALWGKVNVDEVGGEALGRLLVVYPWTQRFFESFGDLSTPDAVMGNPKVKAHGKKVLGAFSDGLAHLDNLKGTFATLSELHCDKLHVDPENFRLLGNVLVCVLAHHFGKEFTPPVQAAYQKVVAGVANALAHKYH", "test": "Percent Hb occupancy after repeated administration, healthy volunteers", "assay_type": "in vivo", "description": "(§1) In some embodiments, the therapeutically effective amount is determined by measuring the percent of hemoglobin occupied by the compound, i.e., the percent Hb occupancy. The percent Hb occupancy is a measure of target engagement defined as the percentage of hemoglobin bound by a compound (e.g., Compound I) calculated as the molar concentration of the compound (e.g., Compound I) in RBCs divided by the molar concentration of hemoglobin in RBCs (the mean corpuscular hemoglobin concentration calculated from the hematology panel). The values for concentration of a compound (e.g., Compound I) in RBCs is calculated from the concentrations in whole blood and plasma, and the hematocrit.\n(§2) Another study was initiated in healthy volunteer aged 18-55 years old to evaluate the safety and tolerability of multiple ascending doses of Compound I. Four cohorts of 10 subjects each (n=7 Compound I, n=3 placebo) were evaluated in a sequential double-blind manner. To reach steady state levels each subject received a loading dose regimen for 3 or 4 days followed by once daily medication for up to 14 days. Primary endpoints were safety and tolerability; key secondary endpoints included PK and effect on electrocardiogram (ECG) parameters. Table 7 below provides an overview of the doses of Compound I or placebo that were used in each cohort.\nPreliminary whole blood PK parameters (geometric mean and % CV) and hemoglobin occupancy in healthy volunteers of the 15 mg, 25 mg, 50 mg, and 75 mg MAD cohorts are summarized in Table 10."}, "[2]": {"target": "T1, hemoglobin", "test": "Percent Hb occupancy after single doses, healthy volunteers", "assay_type": "in vivo", "details": "for % Hb occupancy based on Cmax: mean", "description": "as §1\nPercent hemoglobin occupancy was calculated as follows, wherein MCHC refers to mean corpuscular hemoglobin concentration, and Hct refers to hematocrit: […]"}, "[3]": {"test": "Multiple ascending dose (MAD) study in healthy volunteers: safety (TEAEs)", "assay_type": "in vivo, human", "details": "blinded; for Number of SAEs / Number of TEAEs / Number of TEAEs grade ≥ 3 / Number of TEAEs leading to study drug discontinuation / Number of drug-related TEAEs: HV MAD, n=10 incl. placebo", "description": "To evaluate the safety and tolerability of multiple ascending doses (MAD) of Compound I, seven healthy volunteers aged 18 to 55 years old were administered a loading dose of 300 mg of Compound I for 3 days, followed by maintenance doses of 15 mg, 25 mg, 50 mg, or 75 mg of Compound I for 14 days. Three healthy volunteers aged 18 to 55 years old were administered placebo for 14 days. Primary endpoints were safety and tolerability; key secondary endpoints included PK and effect on electrocardiogram (ECG) parameters.\nas §2\nEndpoints were safety (clinical laboratory test results, adverse events, electrocardiogram […] parameters, physical examination findings) and tolerability, and PK."}, "[4]": {"test": "MAD study in healthy volunteers: whole blood and plasma PK", "assay_type": "in vivo, human", "details": "for Cmax / Tmax / AUC(0-t) / concentration at 14 day: human; for Tmax: median; for AUC(0-t): read-out: AUC0-24; for concentration at 14 day: read-out: Cmin"}, "[5]": {"details": "HV MAD Day 14, 15 mg QD maintenance, plasma"}, "[6]": {"details": "HV MAD Day 14, 15 mg QD maintenance, whole blood"}, "[7]": {"details": "HV MAD Day 14, 25 mg QD maintenance, plasma"}, "[8]": {"details": "HV MAD Day 14, 25 mg QD maintenance, whole blood"}, "[9]": {"details": "HV MAD Day 14, 50 mg QD maintenance, plasma"}, "[10]": {"details": "HV MAD Day 14, 75 mg QD maintenance, plasma"}, "[11]": {"details": "HV MAD Day 14, 75 mg QD maintenance, whole blood"}}, "note": "Where two headings read alike, the source gives them in different places. Marks after values point to notes of the source that are not given here."}
{"smiles": "O=Cc1c(O)cccc1OC[C@@H]1COCCN1C(=O)c1cccnc1CCO", "note": "[Compound I, (S)-2-hydroxy-6-((4-(2-(2-hydroxyethyl)nicotinoyl)morpholin-3-yl)methoxy)benzaldehyde]", "values": [{"measurement": "receptor occupancy at 15 mg", "setting": "[1]; HV MAD Day 14, 15 mg QD maintenance (loading 200 mg x 3 days)", "result": 16, "unit": "%"}, {"measurement": "receptor occupancy at 25 mg", "setting": "[1]; HV MAD Day 14, 25 mg QD maintenance (loading 200 mg x 3 days)", "result": 16.3, "unit": "%"}, {"measurement": "receptor occupancy at 50 mg", "setting": "[1]; HV MAD Day 14, 50 mg QD maintenance (loading 500/400/400 mg)", "result": 25.8, "unit": "%"}, {"measurement": "receptor occupancy at 75 mg", "setting": "[1]; HV MAD Day 14, 75 mg QD maintenance (loading 500/500/500/400 mg)", "result": 35.2, "unit": "%"}, {"measurement": "% Hb occupancy based on Cmax", "setting": "[2]; HV single 50 mg", "result": 0.88, "unit": "%"}, {"measurement": "% Hb occupancy based on Cmax", "setting": "[2]; HV single 100 mg", "result": 1.9, "unit": "%"}, {"measurement": "% Hb occupancy based on Cmax", "setting": "[2]; HV single 200 mg", "result": 3.8, "unit": "%"}, {"measurement": "% Hb occupancy based on Cmax", "setting": "[2]; HV single 400 mg", "result": 9.5, "unit": "%"}, {"measurement": "% Hb occupancy based on Cmax", "setting": "[2]; HV single 800 mg", "result": 16.8, "unit": "%"}, {"measurement": "% Hb occupancy based on Cmax", "setting": "[2]; HV single 1400 mg", "result": 25, "unit": "%"}, {"measurement": "% Hb occupancy based on Cmax", "setting": "[2]; HV single 2200 mg", "result": 43.9, "unit": "%"}, {"measurement": "difference in Hb occupancy between fasting and fed states", "setting": "[2]; HV, 200 mg single dose", "result": "no observable difference"}, {"measurement": "percent Hb occupancy, dependence on dose", "setting": "[2]; HV, single doses (FIG. 1)", "result": "dose-dependent increase"}, {"measurement": "Hb occupancies compared with voxelotor", "setting": "[2]; HV, single doses over a similar range", "result": "exceed those reported in healthy volunteers receiving single doses of voxelotor"}, {"measurement": "tolerability", "setting": "[3]; HV MAD study", "result": "well tolerated"}, {"measurement": "Number of SAEs", "setting": "[3]; 15 mg maintenance cohort", "result": 0}, {"measurement": "Number of TEAEs", "setting": "[3]; 15 mg maintenance cohort", "result": 8}, {"measurement": "Number of TEAEs grade ≥ 3", "setting": "[3]; 15 mg maintenance cohort", "result": 0}, {"measurement": "Number of TEAEs leading to study drug discontinuation", "setting": "[3]; 15 mg maintenance cohort", "result": 0}, {"measurement": "Number of drug-related TEAEs", "setting": "[3]; 15 mg maintenance cohort, grade 1 somnolence", "result": "1^b"}, {"measurement": "Number of SAEs", "setting": "[3]; 25 mg maintenance cohort", "result": 0}, {"measurement": "Number of TEAEs", "setting": "[3]; 25 mg maintenance cohort", "result": 5}, {"measurement": "Number of TEAEs grade ≥ 3", "setting": "[3]; 25 mg maintenance cohort", "result": 0}, {"measurement": "Number of TEAEs leading to study drug discontinuation", "setting": "[3]; 25 mg maintenance cohort", "result": 0}, {"measurement": "Number of drug-related TEAEs", "setting": "[3]; 25 mg maintenance cohort, vomiting and nausea in 1 participant", "result": "2^c"}, {"measurement": "Number of SAEs", "setting": "[3]; 50 mg maintenance cohort", "result": 0}, {"measurement": "Number of TEAEs", "setting": "[3]; 50 mg maintenance cohort", "result": 17}, {"measurement": "Number of TEAEs grade ≥ 3", "setting": "[3]; 50 mg maintenance cohort", "result": 1}, {"measurement": "Number of TEAEs leading to study drug discontinuation", "setting": "[3]; 50 mg maintenance cohort", "result": 0}, {"measurement": "Number of drug-related TEAEs", "setting": "[3]; 50 mg maintenance cohort, headaches and dizziness in 1 participant", "result": "2^d"}, {"measurement": "Number of SAEs", "setting": "[3]; 75 mg maintenance cohort", "result": 0}, {"measurement": "Number of TEAEs", "setting": "[3]; 75 mg maintenance cohort", "result": 3}, {"measurement": "Number of TEAEs grade ≥ 3", "setting": "[3]; 75 mg maintenance cohort", "result": 0}, {"measurement": "Number of TEAEs leading to study drug discontinuation", "setting": "[3]; 75 mg maintenance cohort", "result": 0}, {"measurement": "Number of drug-related TEAEs", "setting": "[3]; 75 mg maintenance cohort", "result": 0}, {"measurement": "B:P ratio (mean AUC0-24 blood:mean AUC0-24 plasma)", "setting": "[4]; HV MAD Day 14, 15 mg QD maintenance", "result": 182}, {"measurement": "B:P ratio (mean AUC0-24 blood:mean AUC0-24 plasma)", "setting": "[4]; HV MAD Day 14, 25 mg QD maintenance", "result": 194}, {"measurement": "B:P ratio (mean AUC0-24 blood:mean AUC0-24 plasma)", "setting": "[4]; HV MAD Day 14, 50 mg QD maintenance", "result": 149}, {"measurement": "PK among cohorts with multiple ascending doses", "setting": "[4]; HV, loading 300 mg x 3 days, maintenance 15, 25, 50 or 75 mg x 14 days (FIG. 2)", "result": "linear, dose-proportional PK"}, {"measurement": "Cmax", "setting": "[4]; HV MAD Day 14, 15 mg QD maintenance (loading 200 mg x 3 days), whole blood", "result": 130000, "unit": "ng/mL"}, {"measurement": "Cmax", "setting": "[4]; [5]", "result": 830, "unit": "ng/mL"}, {"measurement": "Tmax", "setting": "[4]; [5]", "result": 1, "unit": "h"}, {"measurement": "AUC(0-t)", "setting": "[4]; [5]", "result": 15.6, "unit": "µg·h/mL"}, {"measurement": "concentration at 14 day", "setting": "[4]; [5]", "result": 680, "unit": "ng/mL"}, {"measurement": "Tmax", "setting": "[4]; [6]", "result": 6, "unit": "h"}, {"measurement": "concentration at 14 day", "setting": "[4]; [6]", "result": 121000, "unit": "ng/mL"}, {"measurement": "Cmax", "setting": "[4]; HV MAD Day 14, 25 mg QD maintenance (loading 200 mg x 3 days), whole blood", "result": 141000, "unit": "ng/mL"}, {"measurement": "Cmax", "setting": "[4]; [7]", "result": 900, "unit": "ng/mL"}, {"measurement": "Tmax", "setting": "[4]; [7]", "result": 1.5, "unit": "h"}, {"measurement": "AUC(0-t)", "setting": "[4]; [7]", "result": 15.9, "unit": "µg·h/mL"}, {"measurement": "concentration at 14 day", "setting": "[4]; [7]", "result": 660, "unit": "ng/mL"}, {"measurement": "Tmax", "setting": "[4]; [8]", "result": 2, "unit": "h"}, {"measurement": "AUC(0-t)", "setting": "[4]; [8]", "result": 3090, "unit": "µg·h/mL"}, {"measurement": "Cmax", "setting": "[4]; HV MAD Day 14, 50 mg QD maintenance (loading 500/400/400 mg), whole blood", "result": 236000, "unit": "ng/mL"}, {"measurement": "Cmax", "setting": "[4]; [9]", "result": 1990, "unit": "ng/mL"}, {"measurement": "Tmax", "setting": "[4]; [9]", "result": 1, "unit": "h"}, {"measurement": "AUC(0-t)", "setting": "[4]; [9]", "result": 34.5, "unit": "µg·h/mL"}, {"measurement": "concentration at 14 day", "setting": "[4]; [9]", "result": 1450, "unit": "ng/mL"}, {"measurement": "concentration at 14 day", "setting": "[4]; HV MAD Day 14, 50 mg QD maintenance, whole blood", "result": 210000, "unit": "ng/mL"}, {"measurement": "Cmax", "setting": "[4]; [10]", "result": 2740, "unit": "ng/mL"}, {"measurement": "Tmax", "setting": "[4]; [10]", "result": 1, "unit": "h"}, {"measurement": "AUC(0-t)", "setting": "[4]; [10]", "result": 48.6, "unit": "µg·h/mL"}, {"measurement": "concentration at 14 day", "setting": "[4]; [10]", "result": 2220, "unit": "ng/mL"}, {"measurement": "Tmax", "setting": "[4]; [11]", "result": 3, "unit": "h"}, {"measurement": "AUC(0-t)", "setting": "[4]; [11]", "result": 6760, "unit": "µg·h/mL"}]}
